# Where a SMILES comes first, the peptide text is derived from it. The star is where a group is joined. Cbz = O=C(OCc1ccccc1)*
# How the values were obtained:
# Format in all cases: cell-based
# [1] = tested on: HCT116 cells; assay: TMT labeling proteomics of HCT116 cells treated with MG132, CB-5083 or NMS-873; conditions: for Log2 FC Baculoviral IAP repeat-containing protein 5 (BIRC5) / Log2 FC Cell division cycle protein 20 homolog (CDC20) / Log2 FC F-box only protein 5 (FBXO5) / Log2 FC G1/S-specific cyclin-D1 (CCND1) / Log2 FC Geminin (GMNN) / Log2 FC M-phase inducer phosphatase 2 (CDC25B) / Log2 FC Mitotic checkpoint serine/threonine-protein kinase BUB1 (BUB1) / Log2 FC Myc proto-oncogene protein (MYC) / Log2 FC Origin recognition complex subunit 6 (ORC6) / Log2 FC Ribonucleoside-diphosphate reductase subunit M2 (RRM2) / Log2 FC Securin (PTTG1): compound vs DMSO
# Protocol: HCT116 cells were treated with 1 μM MG132, 2 μM CB-5083 or 4 μM of NMS-874 for 6 h or 24 h, n=2. […] M, C and N represents MG132, CB-5083 and NMS-873, respectively.
# As a step toward understanding the differential effects of inhibiting p97 and the proteasome in cancer treatment, the effect of inhibiting p97 was compared to proteasome inhibition using tandem mass tag (TMT) 16-plexed labelling. This technique allowed for capture of alterations in the proteome after exposure to MG132 (proteasome inhibitor) and p97 inhibitors (CB-5083 and NMS-873). […] Samples were pooled together, fractionated into 8 fractions using high pH reverse chromatography, and analyzed using the highly accurate RTS-SPS-MS3 method.
# [2] = tested on: HCT116 cells; assay: Cell cycle analysis (DNA content); conditions: HCT116, 24 h; 1 μM MG132, 2 μM CB-5083
# Protocol: FIG. 7A depicts cell cycle analysis of HCT116 cells after 24 h of treatments with DMSO, 1 μM of MG132 (MG) or 2 μM of CB-5083. […] Data were from TMT labeling proteomics. M, C and N indicates MG132, CB-5083 and NMS-873 treatment, respectively. […] HCT116 cells were treated for 24 h with DMSO, 1 μM of MG132 (MG), 2 μM of CB-5083 (CB) or 4 μM of NMS-873 (NMS), n=3.
# [3] = tested on: HCT116 cells; assay: Western blot of E2F1 related proteins and phos-4EBP1
# Protocol: FIGS. 9B-9C show network of E2F1 (FIG. 9B) and cMyb (FIG. 9C).
# FIGS. 10A-10F depicts p97 inhibition impairs the transcriptional activity of E2F1 by downregulating the CCND1/CDK complex. […] Data was analyzed using the g:Profiler website. Shading indicates the gene is a potential target of transcription factor c-Myb or E2F1. Blank indicates it is not a target gene. FIG. 10B depicts known regulatory network of the CCND1/CDK/RB1/E2F1 pathway. […] HCT116 cells were treated with 1 μM MG132, 2 μM CB-5083 or 4 μM of NMS-874 for 6 h. FIGS. 10E and 10F show transcriptional activity of E2F1 measured using E2F1 reporter assay. HCT116 cells were transfected with pGL2-AN plasmid (Addgene: 20950) for 24 h. Then cells were plated in 384 well plate and incubated for 16 h. The luminescence were detected after 8 h treatment with MG132, CB-5083 or NMS-873. Data are shown as mean±SD, n=3. f, qRT-PCR analysis of ATF3, DHFR and CCND1 RNAs following treatment with MG132, CB-5083 or NMS-874. HCT116 cells were treated for 2, 6 and 24 h using the same concentration as proteomic and western blot assay (n=4).
# To investigate whether the protein translation was inhibited by p97 or proteasome inhibitor, the phosphorylation state of eukaryotic translation initiation factor 4E-binding protein 1 (4E-BP1) was examined. Phosphorylation of 4E-BP1 serves to increase total protein translation. […] The effect of p97 inhibition on specific protein levels arises from a change in transcript levels. To examine how transcript levels might be affected, potential transcription factor binding sites (TFBSs) in the promoters of these 33 genes in the TRANSFAC database were examined. […] By examining protein-protein interaction networks related to E2F1 and MYB in the STRING database, 11 E2F1 interactors were found (FIG. 9B) and 11 MYB interactors (FIG. 9C). […] Therefore it was determined to further investigate the role of E2F1, rather than MYB, in cells responding to p97 and proteasome inhibition.
# It was hypothesized that CCND1 and CDK4/6 upregulation by MG132 promotes RB1 hyperphosphorylation.
# [4] = tested on: cyclin D1; assay: Cyclin D1 level and degradation (co-treatment, CHX chase)
# Protocol: FIGS. 12A-12C depicts Western blots detecting the effects of p97 inhibitors and MG132 on cell cycle proteins in HT29 and HCT116 cells. […] Then, 50 μM of CHX was added and cells were collected at 0 h, 0.5 h, and 1 h. FIG. 12C depicts half-life of cyclin D1 in HCT116 cells. HCT116 cells were pre-treated with 5 μM of CB-5083 or DMSO for 30 minutes before adding 50 μM of CHX, and cells were collected at 0, 10, 20, 30 min (n=3), * indicates p<0.05 according to unpaired t-test.
# The concentration of MG132, CB-5083 and Baf A1 was 1 μM, 2 μM and 10 μM, respectively. […] FIGS. 13D-13E depict the half-life of Securin in HCT116 cells. HCT116 cells were treated with 1 μM of MG132, 2 μM of CB-5083, 1 μM of MG132 plus 2 μM of CB-5083 or DMSO. […] Cells were pretreated with […] for 1 h. […] For FIGS. 13B-13G, D, B, M, C and N represents DMSO, Baf A1, MG132, CB-5083 and NMS-873, respectively. Data are shown as mean±SD. Statistical analysis was performed using one-way ANOVA.
# Cells were co-treated with CB-5083 and either the proteasome inhibitor MG132 or the autophagy inhibitor Bafilomycin A1 (Baf A1).
smiles,measurement,setting,value
CC(C)C[C@@H](C=O)NC(=O)[C@H](CC(C)C)NC(=O)[C@H](CC(C)C)NC(=O)OCc1ccccc1 [MG132] (Cbz-Leu-Leu-Leu-aldehyde),TAX1BP1 and p62 protein levels,"[1]; HCT116, 6 h and 24 h",upregulated
same,Log2 FC Baculoviral IAP repeat-containing protein 5 (BIRC5),"[1]; HCT116, 6 h treatment",0.6
same,Log2 FC Cell division cycle protein 20 homolog (CDC20),"[1]; HCT116, 6 h treatment",0.8
same,Log2 FC F-box only protein 5 (FBXO5),"[1]; HCT116, 6 h treatment",0.2
same,Log2 FC G1/S-specific cyclin-D1 (CCND1),"[1]; HCT116, 6 h treatment",0.2
same,Log2 FC Geminin (GMNN),"[1]; HCT116, 6 h treatment",0.9
same,Log2 FC M-phase inducer phosphatase 2 (CDC25B),"[1]; HCT116, 6 h treatment",0.3
same,Log2 FC Mitotic checkpoint serine/threonine-protein kinase BUB1 (BUB1),"[1]; HCT116, 6 h treatment",1.2
same,Log2 FC Myc proto-oncogene protein (MYC),"[1]; HCT116, 6 h treatment",1.2
same,Log2 FC Origin recognition complex subunit 6 (ORC6),"[1]; HCT116, 6 h treatment",0.3
same,Log2 FC Ribonucleoside-diphosphate reductase subunit M2 (RRM2),"[1]; HCT116, 6 h treatment",0.6
same,Log2 FC Securin (PTTG1),"[1]; HCT116, 6 h treatment",1.4
same,"Four XBP1 activated genes/proteins (DNAJB11, SRPR, SRPRB, SYVN1), Log2FC","[1]; HCT116, 24 h of treatment, p<0.05",not
same,Log2 FC Baculoviral IAP repeat-containing protein 5 (BIRC5),"[1]; HCT116, 24 h treatment",1.0
same,Log2 FC Cell division cycle protein 20 homolog (CDC20),"[1]; HCT116, 24 h treatment",1.1
same,Log2 FC F-box only protein 5 (FBXO5),"[1]; HCT116, 24 h treatment",1.5
same,Log2 FC G1/S-specific cyclin-D1 (CCND1),"[1]; HCT116, 24 h treatment",0.4
same,Log2 FC Geminin (GMNN),"[1]; HCT116, 24 h treatment",1.4
same,Log2 FC M-phase inducer phosphatase 2 (CDC25B),"[1]; HCT116, 24 h treatment",−0.2
same,Log2 FC Mitotic checkpoint serine/threonine-protein kinase BUB1 (BUB1),"[1]; HCT116, 24 h treatment",1.4
same,Log2 FC Myc proto-oncogene protein (MYC),"[1]; HCT116, 24 h treatment",0.2
same,Log2 FC Origin recognition complex subunit 6 (ORC6),"[1]; HCT116, 24 h treatment",1.0
same,Log2 FC Ribonucleoside-diphosphate reductase subunit M2 (RRM2),"[1]; HCT116, 24 h treatment",1.2
same,Log2 FC Securin (PTTG1),"[1]; HCT116, 24 h treatment",−0.1
same,CCND1 (cyclin D1) and CDK4/6 protein levels,"[1]; HCT116, proteomic analysis (TMT)",upregulated
same,Distribution of cells in the G0/G1 phase,[2],reduced distribution in the G0/G1 phase
same,Phosphorylation of RB1,"[3]; HCT116, 6 h, western blot",reduced phosphorylation of RB1
same,Global protein translation (phosphorylation state of 4E-BP1),"[3]; HCT116, 6 h of treatments",inhibit global protein translation
same,p21 (CDKN1A) level,"[3]; HCT116, TMT and western blot",significantly upregulated
same,Cyclin D1 turnover in cytosol and nucleus,"[4]; HCT116, 50 μM CHX",blocked
same,Effect on CB-5083 mediated cyclin D1 downregulation (co-treatment),"[4]; HCT116, 6 hours, MG132 1 μM, CB-5083 2 μM, Baf A1 10 μM",rescued CB-5083 mediated cyclin D1 downregulation at the protein level but not at the mRNA level

# From US20230146923A1, “COMPOSITIONS AND METHODS FOR INHIBITION AND TARGETING OF P97” (California Institute of Technology, priority 2021, published 2023)
